PMC7721897, “Metabolism and pharmacokinetics of a novel polyphenol fatty acid ester phloridzin docosahexaenoate in Balb/c female mice” (Scientific Reports, 2020)
Read-outs that look alike come from different tables or passages of the source.

Key:
[1] = Serum pharmacokinetics after intraperitoneal injection; type: in vivo, Balb/c female mice; conditions: 100 mg/kg intraperitoneal; for Cmax: read-out: Maximum serum concentration (Cmax)
Description: Figure 4 Intraperitoneal administration of PZ-DHA results in absorption into the systemic circulation of Balb/c female mice. PZ-DHA (100 mg/kg) was administered by intraperitoneal injection to Balb/c female mice. Blood collection was performed and serum was separated. PZ-DHA was identified and quantified using a calibration curve (R^2 = 0.99) generated using a standard series of PZ-DHA concentrations made in mouse serum. PZ-DHA concentration was plotted against time. The elimination rate of PZ-DHA was determined using a semi-log curve of PZ-DHA concentration vs. time curve.
Pharmacokinetic parameters and in vivo generation of PZ-DHA metabolites were studied using Balb/c female mice. Mice were randomly divided into six groups (n = 4/group) and PZ-DHA (100 mg/kg) was administered by intraperitoneal injection. For each mouse, a single blood collection was performed by cardiac puncture at one of six different time points (t = 15, 30, 60, 90, 120, and 240 min). At the end of blood collection, mice were euthanized by cervical dislocation and organs (liver, lungs, kidneys, spleen, and brain) were harvested. Blood samples were allowed to clot by leaving undisturbed at room temperature for 1 h, and serum was separated by centrifuging at 2000×g for 10 min at 4 °C. The serum was carefully removed and stored on ice until further processing. Serum proteins were precipitated by incubating an aliquot of serum with a mixture of acetonitrile:acetone (80:20) containing 0.1 mg/mL quercetin (internal standard) at 4 °C overnight. The supernatant was separated by centrifuging at 14,000×g for 10 min at 4 °C. Excess solvent was evaporated using nitrogen flush and mixed with methanol and filtered. PZ-DHA-metabolites in the filtrate were identified using a UPLC-ESI–MS/MS (Waters Limited, Mississauga, ON, Canada). Organs were homogenized in PBS (1:5 w/v). Supernatants were collected by centrifugation at 14,000 × g for 15 min at 4 °C. Proteins were precipitated by incubating in acetonitrile:acetone (80:20) containing 0.1 mg/mL quercetin (internal standard) at 4 °C overnight. Supernatants were treated as explained above, and PZ-DHA and/or PZ-DHA-metabolites were identified.
A calibration curve (R^2 = 0.99) generated using a standard series of PZ-DHA concentrations prepared in mouse serum (spiked with 0.1 mg/mL quercetin) was used for the quantification of PZ-DHA. The average PZ-DHA concentrations were plotted against time. The maximum serum concentration of serum (Cmax) and the time to reach Cmax (Tmax) were read directly from the graph. The linear trapezoidal method was used to calculate the area under the curve (AUC) from t = 0 to infinity, the biological half-life of PZ-DHA (t1/2), determined using the plotted curve in Graphpad Prism software (version 5; La Jolla, CA, USA). The clearance following IP administration was determined by non-compartmental analysis using the relationship CL/F = D/AUC. The elimination rate constant λ was determined by linear regression of the elimination phase of the semi-log transformed concentration versus time curve. The t1/2 was calculated using the formula 0.693/λ and the volume of distribution Vd/F from the formula Vd/F = CL/(F*λ).

[2] = In vitro phase I metabolism with mouse hepatic microsomes and NADPH; type: in vitro ADME; conditions: liver microsomal enzymes of C57BL/6 male mice
Description: Figure 2 PZ-DHA undergoes phase I metabolism in the presence of freshly prepared mouse liver microsomes. PZ-DHA (1.1 µM) was incubated with 100 mM NADPH in the presence of mouse liver microsome for 1 h at 37 °C. Metabolites from PZ-DHA (A) hydrolysis, (B) and (C) hydroxylation, and (D) epoxidation were identified.
Mouse hepatic microsomes were freshly isolated from the livers of male C57BL/6 mice, and the entire extraction procedure was carried out at 4 °C. Mouse livers were minced and homogenized in KCl/sucrose phosphate buffer (0.154 M KCl, 0.25 M sucrose in 50 mM potassium phosphate buffer (K2HPO4/KH2PO4) (PPB), pH 7.5). Cell/tissue debris was separated out by centrifuging homogenized livers at 12,000×g for 22 min at 4 °C. The supernatant was collected and centrifuged at 100,000×g for 70 min at 4 °C. The pellet was gently rinsed using 50 mM PPB and resuspended in glycerol/phosphate buffer (20% glycerol (v/v), 80% 0.1 M PPB pH 7.5). The protein concentration was determined using a Bradford assay (R^2 = 1.00), and microsomes were stored at − 80 °C.
Potential in vitro phase I and phase II metabolites of PZ-DHA were detected by incubating PZ-DHA in the presence of freshly-prepared mouse hepatic microsome preparations. Phase I metabolites were determined by incubating 1.1 µM PZ-DHA with 100 mM NADPH in the presence of mouse hepatic microsomes for 1 h at 37 °C. Phase II methylation, glucuronidation, and sulphation of PZ-DHA was determined by incubating 1.1 µM PZ-DHA with 1 mM SAM, 2 mM UDPGA, and 0.5 mM PAPS, respectively, in the presence of freshly prepared mouse hepatic microsome for 1 h at 37 °C (Supplementary information Tables S1–S4). To assess the efficiency of the metabolic process, controls (no PZ-DHA control, no mouse hepatic microsome control and no co-factor control) were incubated in parallel to the test. Reactions were terminated by adding a mixture of 4 mL ice-cold acetonitrile:acetone (80:20) containing 0.05 mg/mL quercetin as the internal standard. Proteins were precipitated by incubating the reaction mixture at 4 °C overnight and separated by centrifuging at 14,000 × g for 15 min at 4 °C. Supernatants were concentrated under nitrogen flush, filtered and PZ-DHA and/or PZ-DHA metabolites were identified using a UPLC-ESI–MS/MS system (Waters Limited, Mississauga, ON, Canada).
PZ-DHA and/or PZ-DHA metabolites in malignant/non-malignant epithelial cell lysates, in vitro microsome enzyme reaction mixtures, and mouse serum aliquots were determined using UPLC-ESI–MS/MS instrument (Waters Limited, Mississauga, ON, Canada). All mass spectroscopic analyses were performed using mass scan (full-scan, identification of unknowns) and single ion monitoring (SIM; quantification of PZ, DHA, PZ-DHA, and quercetin) modes of a Waters H-class UPLC separations module coupled with a Micromass Quattro micro API MS/MS system and MassLynx V4.0 control software. An Allure biphenyl column (100 mm × 2.1 mm, 1.8 μm, Restek Pure Chromatography, Bellefonte, PA, USA) and a flow rate of 0.3 mL/min were employed. ESI- mode with a capillary voltage of 3000 V and a nebulizer gas (N2) temperature of 375 °C were used. A volume of 2 µL sample was injected.

4T1 breast cancer cells = tested on: 4T1 breast cancer cells; set-up: method as in PMID 31473253; conditions: intraperitoneal, 100 mg/kg every 2 days for 10 days; cited from earlier work

CC/C=C\C/C=C\C/C=C\C/C=C\C/C=C\C/C=C\CCC(=O)OC[C@H]1O[C@@H](Oc2cc(O)cc(O)c2C(=O)CCc2ccc(O)cc2)[C@H](O)[C@@H](O)[C@@H]1O [PZ-DHA, phloridzin docosahexaenoate]
Clearance (CL/F) [1]: 1.37 mL/min | Volume of distribution (Vd/F) [1]: 56.5 mL | Biological half-life (T1/2) ([1]; serum): 28.7 min | Cmax ([1]; serum): 23.4 µM | serum detectability at the last measured time ([1]; 240 min): remained detectable | Tmax ([1]; female, Balb/c, mouse, ip, serum, read-out: Time to reach maximum serum concentration (Tmax) (converted)): 60 min | half-life ([1]; female, Balb/c, mouse, serum, ip, 100 mg/kg, serum, read-out: Biological half-life (T1/2)): 28 min | Cmax ([1]; female, Balb/c, mouse, serum, ip, 100 mg/kg, serum): 23.7 µM | Vd/F ([1]; female, Balb/c, mouse, serum, ip, 100 mg/kg, read-out: Volume of distribution (Vd/F)): 0.057 L | AUC ([1]; female, Balb/c, mouse, serum, ip, t = 0 to infinity, read-out: The area under the curve (AUC) (converted)): 36.6 µM·h | k el ([1]; female, Balb/c, mouse, serum, ip, read-out: Elimination rate (λz) (converted)): 0.0004 s⁻¹ | concentration at 15 min ([1]; female, Balb/c, mouse, serum, ip, 15 min, read-out: serum concentration at the 1st measured time point): 0.9 ± 0.4 µM | NADPH-dependent phase I bio-transformations identified [2]: hydrolysis, hydroxylation, and epoxidation | tumor growth and metastasis of 4T1 breast cancer cells (4T1 breast cancer cells): inhibits tumor growth and metastasis
